Assays:
MtbFolB [1] = molecular target: T1, MtbFolB (Mycobacterium tuberculosis, UniProt P9WNC5); assay: end-point fluorescence assay; format: biochemical
T1 sequence (P9WNC5 1-133): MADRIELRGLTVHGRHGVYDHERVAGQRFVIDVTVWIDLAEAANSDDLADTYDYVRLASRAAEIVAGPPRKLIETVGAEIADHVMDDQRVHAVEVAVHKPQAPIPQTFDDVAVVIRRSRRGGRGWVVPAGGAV

MtbFolB [2] = molecular target: T1, MtbFolB; assay: biochemical; conditions: read-out: % inhibition
MtbFolB [3] = molecular target: T1, MtbFolB; assay: biochemical
MtbFolB [4] = molecular target: T1, MtbFolB; assay: primary screen, end-point fluorescence assay, 384-well, […] h; format: biochemical; conditions: 5 µM DHNP, 14 nM enzyme, pH 8.0, 24 °C, 1% DMSO

SMILES | IC50 (MtbFolB [1]) [µM] | inhibition at 20 µM (MtbFolB [2]) [%] | also measured
O=C(CCC(=O)c1ccc(-c2ccccc2)cc1)Nc1nncs1 [compound 2, 2] | 8 |  | 
CC(=O)Nc1ccc(NS(=O)(=O)c2ccc(Br)s2)cc1 [compound 34, 34] | > 100 |  | 
Cc1ccc(-n2c(=O)cc(C)n2C(=O)C(C)Oc2ccccc2)cc1C (stereo not drawn) [compound 22, 22] | 13.5 | 29.2 | IC50 (MtbFolB [3]): 172 ± 14 µM
O=S(=O)(NCc1ccc(N2CCC(c3ccc(OC(F)(F)F)cc3)CC2)cc1)c1ccc(Br)s1 [compound 38, 38] | > 100 |  | 
O=S(=O)(Nc1ccc(N2CCCCC2)cc1)c1ccc(Br)s1 [compound 32, 32] | 11.3 |  | 
CCc1cc(N2CCC[C@@H](O)C2)ccc1NS(=O)(=O)c1ccc(Br)s1 [compound 35, 35] | 29.1 |  | 
CN(C)c1ccc(NS(=O)(=O)c2ccc(-c3ccc(C(F)(F)F)cc3)cc2)cc1 [compound 29, 29] | > 100 |  | 
O=S(=O)(Nc1ccc(-n2ccnc2)cc1)c1ccc(Br)s1 [compound 33, 33] | > 100 |  | 
COc1ccc(CC(=O)n2c(C)cc(=O)n2-c2ccccc2)cc1 [compound 16, 16] |  | 35.1 | 
CN(C)c1ccc(NS(=O)(=O)c2ccc3ccn(C)c3c2)cc1 [compound 24, 24] | > 100 |  | 
O=C(Nc1nc2ccccc2n1Cc1ccc(F)cc1)C1CCC(F)(F)CC1 [compound 14, 14] | 17.2 |  | 
O=C1NCN(c2ccccc2)C12CCN(CC(O)COc1ccccc1C1CCCC1)CC2 (stereo not drawn) [compound 17, 17] |  |  | % inhibition at 20 μM (MtbFolB [4]): 32.9%
CN(C)c1ccc(NS(=O)(=O)c2cnn(C)c2)cc1 [compound 25, 25] | 6.8 |  | 
O=C(Nc1nc2ccccc2n1Cc1ccc(F)cc1)C1CCC(F)(F)CC1 [compound 14] |  | 36.6 | 
O=S(=O)(Nc1ccc(N2CCN(S(=O)(=O)c3ccc(Br)s3)CC2)cc1)c1ccc(Br)s1 [compound 39, 39] | 10.6 |  | 
O=C(CCC(=O)c1ccc(-c2ccccc2)cc1)Nc1nncs1 [compound 2] |  | 53.2 | 
Cc1noc(C)c1S(=O)(=O)Nc1ccc(N(C)C)cc1 [compound 27, 27] | 9.2 |  | 
Cc1cc(=O)n(-c2ccccc2)n1C(=O)c1ccc(Cl)cc1 [compound 21, 21] | 34.4 | 29.8 | 
Cc1cc(=O)n(-c2ccccc2)n1C(=O)Cc1cccs1 [compound 3, 3] | 30.1 | 52.5 | IC50 (MtbFolB [3]): 250 ± 30 µM
CC(C)c1ccc(C(C)NS(=O)(=O)c2ccc(Br)s2)cc1 (stereo not drawn) [compound 37, 37] | > 100 |  | 
Cc1ccc(-n2c(=O)cc(C)n2C(=O)Cc2cccs2)cc1C [compound 9, 9] |  | 40.8 | IC50 (MtbFolB [3]): 434 ± 64 µM
Cc1cc(=O)n(-c2ccccc2)n1C(=O)C(C)Oc1ccccc1 (stereo not drawn) [compound 20, 20] | 23.1 | 29.9 | IC50 (MtbFolB [3]): 362 ± 82 µM
